In paper PMC9145702, “Design, Synthesis and Evaluation of Fused Bicyclo[2.2.2]octene as a Potential Core Scaffold for the Non-Covalent Inhibitors of SARS-CoV-2 3CL^pro Main Protease” (Pharmaceuticals, 2022):
Like-named read-outs stand apart in the source and are kept apart here.

Tests used:
[1] = target: SARS-CoV-2 3CL^pro main protease (Severe acute respiratory syndrome coronavirus 2, UniProt P0DTD1); assay: FRET-based assay of SARS-CoV-2 3CL^pro main protease inhibition activity; format: biochemical; conditions: for screening result after accounting for effect on measured fluorescence: 64 μM, difference between 3CL(+) and 3CL(-) fluorescence; for first screening result (hit candidate): first FRET screening at 64 μM of each compound, before accounting for compound effect on fluorescence
3CL^pro = system: 3CL^pro; design: method as in PMID 33817567; conditions: compared with 11a; read-out: inhibition activity; cited from earlier work

| Compound | melting point | further results |
| --- | --- | --- |
| O=C(NN1C(=O)C2C(C1=O)C1(c3cccs3)C=CC2(NC(=O)c2ccccc2)C2C(=O)N(NC(=O)c3cccnc3)C(=O)C21)c1cccnc1 (stereo not drawn) [11g, N-[2,3,3a,4a,5,6,7,7a,8,8a-Decahydro-1,3,5,7-tetraoxo-2,6-bis(3-pyridylcarboamino)-8-(2-thienyl)-4,8-ethenobenzo[1,2-c:4,5-c′]dipyrrol-4(1H)-yl]benzamide] | 259 to 262 °C (dec.) |  |
| O=C(NN1C(=O)C2C(C1=O)C1(c3ccccc3)C=CC2(NC(=O)c2ccccc2)C2C(=O)N(NC(=O)c3cccnc3)C(=O)C21)c1cccnc1 (stereo not drawn) [11b, N-[8-Phenyl-2,3,3a,4a,5,6,7,7a,8,8a-decahydro-1,3,5,7-tetraoxo-2,6-bis(3-pyridylcarboamino)-4,8-ethenobenzo[1,2-c:4,5-c′]dipyrrol-4(1H)-yl]benzamide] | 278 to 282 °C |  |
| COc1ccc(C2=CC3(NC(=O)c4ccccc4)C4C(=O)N(NC(=O)c5ccncc5)C(=O)C4C2(C)C2C(=O)N(NC(=O)c4ccncc4)C(=O)C23)cc1 (stereo not drawn) [11n, N-[2,3,3a,4a,5,6,7,7a,8,8a-Decahydro-8-methyl-9-(4-methoxyphenyl)-1,3,5,7-tetraoxo-2,6-bis(4-pyridylcarboamino)-4,8-ethenobenzo[1,2-c:4,5-c′]dipyrrol-4(1H)-yl]benzamide] | 387 to 390 °C (dec.) |  |
| C/C(=N\NC(=O)c1cccnc1)C1=CC2(NC(=O)c3ccccc3)C3C(=O)N(NC(=O)c4cccnc4)C(=O)C3C1(C)C1C(=O)N(NC(=O)c3cccnc3)C(=O)C12 (stereo not drawn) [11o, N-[2,3,3a,4a,5,6,7,7a,8,8a-Decahydro-8-methyl-1,3,5,7-tetraoxo-2,6-bis(3-pyridyl-carboamino)-9-(1-(N-[3-pyridylcarbo]hydrazonyl)eth-1-yl)-4,8-ethenobenzo[1,2-c:4,5-c′]dipyrrol-4(1H)-yl]benzamide] | 284 to 286 °C |  |
| O=C(NC12C=CC(c3ccccc3)(C3C(=O)N(NC(=O)c4ccccn4)C(=O)C31)C1C(=O)N(NC(=O)c3ccccn3)C(=O)C12)c1ccccc1 (stereo not drawn) [11a, N-[8-Phenyl-2,3,3a,4a,5,6,7,7a,8,8a-decahydro-1,3,5,7-tetraoxo-2,6-bis(2-pyridylcarboamino)-4,8-ethenobenzo[1,2-c:4,5-c′]dipyrrol-4(1H)-yl]benzamide] | 263 to 265 °C | screening result after accounting for effect on measured fluorescence [1]: remained as hit candidates; IC50 ([1]; FRET assay, isolated SARS-CoV-2 3CL^pro, compound concentrations 200, 100, 50 and 25 μM): 102 µM; first screening result (hit candidate) [1]: candidate hit compounds |
| O=C(NC12C=CC(c3cccs3)(C3C(=O)N(NC(=O)c4ccccn4)C(=O)C31)C1C(=O)N(NC(=O)c3ccccn3)C(=O)C12)c1ccccc1 (stereo not drawn) [11f, N-[2,3,3a,4a,5,6,7,7a,8,8a-Decahydro-1,3,5,7-tetraoxo-2,6-bis(2-pyridylcarboamino)-8-(2-thienyl)-4,8-ethenobenzo[1,2-c:4,5-c′]dipyrrol-4(1H)-yl]benzamide] | 288 to 291 °C (dec.) | first screening result (hit candidate) [1]: candidate hit compounds |
| COc1ccc(C2=CC3(NC(=O)c4ccccc4)C4C(=O)N(NC(=O)c5cccnc5)C(=O)C4C2(C)C2C(=O)N(NC(=O)c4cccnc4)C(=O)C23)cc1 (stereo not drawn) [11m, N-[2,3,3a,4a,5,6,7,7a,8,8a-Decahydro-8-methyl-9-(4-methoxyphenyl)-1,3,5,7-tetraoxo-2,6-bis(3-pyridylcarboamino)-4,8-ethenobenzo[1,2-c:4,5-c′]dipyrrol-4(1H)-yl]benzamide] | 365 to 369 °C (dec.) |  |
| O=C(NC12C=CC(c3ccco3)(C3C(=O)N(NC(=O)c4ccccn4)C(=O)C31)C1C(=O)N(NC(=O)c3ccccn3)C(=O)C12)c1ccccc1 (stereo not drawn) [11i, N-[8-(2-Furyl)-2,3,3a,4a,5,6,7,7a,8,8a-decahydro-1,3,5,7-tetraoxo-2,6-bis(2-pyridylcarboamino)-4,8-ethenobenzo[1,2-c:4,5-c′]dipyrrol-4(1H)-yl]benzamide] | 332 to 334 °C | first screening result (hit candidate) [1]: candidate hit compounds |
| CC1=CC2(c3ccccc3)C3C(=O)N(NC(=O)c4cccnc4)C(=O)C3C1(NC(=O)c1ccccc1)C1C(=O)N(NC(=O)c3cccnc3)C(=O)C12 (stereo not drawn) [11e, N-[8-Phenyl-2,3,3a,4a,5,6,7,7a,8,8a-decahydro-10-methyl-1,3,5,7-tetraoxo-2,6-bis(3-pyridylcarboamino)-4,8-ethenobenzo[1,2-c:4,5-c′]dipyrrol-4(1H)-yl]benzamide] | 345 to 347 °C (dec.) | IC50 [1]: ~200 µM; screening result after accounting for effect on measured fluorescence [1]: remained as hit candidates; first screening result (hit candidate) [1]: candidate hit compounds |
| O=C(NN1C(=O)C2C(C1=O)C1(c3cccs3)C=CC2(NC(=O)c2ccccc2)C2C(=O)N(NC(=O)c3ccncc3)C(=O)C21)c1ccncc1 (stereo not drawn) [11h, N-[2,3,3a,4a,5,6,7,7a,8,8a-Decahydro-1,3,5,7-tetraoxo-2,6-bis(4-pyridylcarboamino)-8-(2-thienyl)-4,8-ethenobenzo[1,2-c:4,5-c′]dipyrrol-4(1H)-yl]benzamide] | 310 to 312 °C |  |
| O=C(NN1C(=O)C2C(C1=O)C1(c3ccccc3)C=CC2(NC(=O)c2ccccc2)C2C(=O)N(NC(=O)c3ccncc3)C(=O)C21)c1ccncc1 (stereo not drawn) [11c, N-[8-Phenyl-2,3,3a,4a,5,6,7,7a,8,8a-decahydro-1,3,5,7-tetraoxo-2,6-bis(4-pyridylcarboamino)-4,8-ethenobenzo[1,2-c:4,5-c′]dipyrrol-4(1H)-yl]benzamide] | 289 to 293 °C |  |
| O=C(NN1C(=O)C2C(C1=O)C1(c3ccco3)C=CC2(NC(=O)c2ccccc2)C2C(=O)N(NC(=O)c3cccnc3)C(=O)C21)c1cccnc1 (stereo not drawn) [11j, N-[8-(2-Furyl)-2,3,3a,4a,5,6,7,7a,8,8a-decahydro-1,3,5,7-tetraoxo-2,6-bis(3-pyridylcarboamino)-4,8-ethenobenzo[1,2-c:4,5-c′]dipyrrol-4(1H)-yl]benzamide] | 272 to 276 °C |  |
| CC1=CC2(c3ccccc3)C3C(=O)N(NC(=O)c4ccccn4)C(=O)C3C1(NC(=O)c1ccccc1)C1C(=O)N(NC(=O)c3ccccn3)C(=O)C12 (stereo not drawn) [11d, N-[8-Phenyl-2,3,3a,4a,5,6,7,7a,8,8a-decahydro-10-methyl-1,3,5,7-tetraoxo-2,6-bis(2-pyridylcarboamino)-4,8-ethenobenzo[1,2-c:4,5-c′]dipyrrol-4(1H)-yl]benzamide] | 271 to 274 °C |  |
| O=C(NN1C(=O)C2C(C1=O)C1(c3ccco3)C=CC2(NC(=O)c2ccccc2)C2C(=O)N(NC(=O)c3ccncc3)C(=O)C21)c1ccncc1 (stereo not drawn) [11k, N-[8-(2-Furyl)-2,3,3a,4a,5,6,7,7a,8,8a-decahydro-1,3,5,7-tetraoxo-2,6-bis(4-pyridylcarboamino)-4,8-ethenobenzo[1,2-c:4,5-c′]dipyrrol-4(1H)-yl]benzamide] | 309 to 311 °C |  |
| Cc1c(O)cccc1C(=O)N[C@@H](CSc1ccccc1)[C@H](O)CN1C[C@H]2CCCC[C@H]2C[C@H]1C(=O)NC(C)(C)C [nelfinavir] |  | IC50 (3CL^pro): ~40 µM |
| COc1ccc(C2=CC3(NC(=O)c4ccccc4)C4C(=O)N(NC(=O)c5ccccn5)C(=O)C4C2(C)C2C(=O)N(NC(=O)c4ccccn4)C(=O)C23)cc1 (stereo not drawn) [11l, N-[2,3,3a,4a,5,6,7,7a,8,8a-Decahydro-8-methyl-9-(4-methoxyphenyl)-1,3,5,7-tetraoxo-2,6-bis(2-pyridylcarboamino)-4,8-ethenobenzo[1,2-c:4,5-c′]dipyrrol-4(1H)-yl]benzamide] | 298 to 303 °C (dec.) |  |
